Measured values published in article PMC5789847, “Bismuth antimicrobial drugs serve as broad-spectrum metallo-β-lactamase inhibitors” (Nature Communications, 2018).

Key:
IMP-BL21 (IMP-4^+) = assay: microbe, parasite or virus in culture; assay type: cell-based, E. coli; conditions: IMP-BL21
NDM-HK (NDM-1^+) = assay: microbe, parasite or virus in culture; assay type: cell-based, E. coli
VIM-BL21 (VIM-2^+) = assay: microbe, parasite or virus in culture; assay type: cell-based, E. coli; conditions: VIM-BL21
NDM-HK PCV = assay: Microdilution MIC and checkerboard assay; assay type: cell-based, E. coli
Method: The bacteria employed for cell-based and animal studies are listed in Supplementary Table 1. All the E. coli variants were made as described below. The NDM-HK PCV was screened by 20th-generation serial passages of NDM-HK in antibiotic-free medium.
MIC values were determined by standard broth micro-dilution method (Clinical and Laboratory Standards Institute (CLSI) M100-S20, 2010)[64]. Briefly, bacterial cells were cultured in LB broth overnight at 37 °C at 250 rpm and the OD was measured at 600 nm (OD600). The bacterial density was adjusted to about 1 × 10^6 CFU mL^−1 and checked by CFU counting on agar plates afterwards. Tested antibiotics or Bi(III) compounds were added triplicately into individual wells of flat-bottomed 96-well plates and performed 2-fold serial dilution, followed by addition of prepared bacterial inocula. The plate was then incubated at 37 °C for overnight. […] The MIC was determined as the lowest concentration of a drug that could inhibit the growth of microorganism by both visual reading and OD reading at 600 nm using a microtiter plate reader.
Other procedures were kept strictly the same. […] Synergism was defined when FICI ≤ 0.5, indifference was defined when FICI > 0.5 and < 4, and antagonism was defined when FICI≥4[65]. […] All of the determinations were performed at least in triplicate on different days.

E. coli ATCC 25922 = assay: Microdilution MIC assay; assay type: cell-based
Source text: (§1) Other procedures were kept strictly the same.

E. coli BL21(DE3) = assay: Microdilution MIC assay; assay type: cell-based
Source text: as §1

E. coli Rosetta(DE3) = assay: Microdilution MIC assay; assay type: cell-based
Source text: as §1

NDM-Rosetta OX = assay: Microdilution MIC assay; assay type: cell-based, E. coli; conditions: NDM-Rosetta OX
Method: For the test of NDM-Rosetta OX, the growth condition briefly goes as follow. Overnight culture of NDM-Rosetta was 1000-fold diluted into fresh LB medium and regrew to OD ~0.6. The overexpression of NDM-1 was induced by addition of 1 mM isopropyl β-D-1-thiogalactopyranoside (IPTG) for 4 h at 37 °C. The following susceptibility test was performed as described in the Microdilution MIC and MBC assay section in the methodology by using the resulting bacterial pellets with the supplementation of 200 µM IPTG.
as §1

NDM-1-C208A = NDM-1-C208A (Klebsiella pneumoniae, UniProt C7C422, C208A); assay: Cellular thermal shift assay, mutant strain C208A-Rosetta; assay type: cell-based, E. coli; conditions: control 48.24 °C
NDM-HK [1] = assay: Time kill assay; assay type: cell-based, E. coli; conditions: MER 24 μg mL^-1 + CBS 64 μg mL^-1, 24 h, exponential phase
Method: Time kill assay was used to further explore the synergy between MER and Bi(III) compounds. In a typical assay, NDM-HK was cultured overnight and diluted 1:250 into LB broth at 37 °C for 3 h to reach log phase. The initial bacterial density was adjusted to ~10^7 CFU mL^−1 and then exposed to MER, Bi(III) compounds either alone or in combination. LB broth with no drugs served as a control. Aliquots of bacterial suspension were withdrawn at different time intervals (0, 1, 2, 4, 6, 8, and 24 h) for inspection of bacterial viability by agar plating. The concentrations of the drugs used in the test are 24 µg mL^−1 for MER, 64 µg mL^−1 for CBS, and 32 µg mL^−1 for Bi(NAC)3. Data from three independent experiments were averaged and plotted as log10 CFU mL^−1 vs. time (h) for each time point over 24 h. All assays were triplicated and performed three times on different days.

NDM-HK [2] = assay: Murine peritonitis infection, mucin-free model; assay type: in vivo, BALB/c mice; conditions: without mucin; MER 50 mg kg^−1 + CBS 50 mg kg^−1, up to 86 h
Source text: All experiments were approved by, and performed in accordance with the guidelines approved by Committee on the Use of Live Animals in Teaching and Research (CULATR), the University of Hong Kong. A total of 6–8-week-old, female BALB/c mice (18–22 g) were purchased from Charles River Laboratories, Inc. and were used in all mouse studies. The animals were randomized to cages for each experiment.
In mucin-free survival experiment, the mice were infected with a dose of 5 × 10^7 CFU of NDM-HK in PBS. The mice received monotherapy of MER (50 mg kg^−1) or CBS (50 mg kg^−1), or combination therapy 0.5 h post infection (n = 5 for each group). Other experimental operations and conditions were kept the same as that in mucin-assisted model. Body weights and mice survival were monitored for endpoint till endpoint of the experiment.

[3] = MER + compound, 256 µg mL^-1 set as MIC of Bi(III)

NDM-1-C208A, sequence (C7C422 29-270 C208A): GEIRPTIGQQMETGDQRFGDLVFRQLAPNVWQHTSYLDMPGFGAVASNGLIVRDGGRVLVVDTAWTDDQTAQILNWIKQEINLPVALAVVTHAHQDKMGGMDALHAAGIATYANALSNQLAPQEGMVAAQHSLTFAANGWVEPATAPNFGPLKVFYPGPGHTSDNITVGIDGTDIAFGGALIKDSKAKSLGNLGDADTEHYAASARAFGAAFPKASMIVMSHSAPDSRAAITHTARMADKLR

With colloidal bismuth subcitrate [CBS] the “MBC of Bi(III) compound alone” value (IMP-BL21 (IMP-4^+)) was over 256 µg/mL, the “MBC of MER in combination with compound at 32 µg mL^-1” value (“MBC of MER in combination” for short) (IMP-BL21 (IMP-4^+)) was 8 µg/mL and the “MIC of Bi(III) compound alone” value (IMP-BL21 (IMP-4^+)) was over 256 µg/mL. The “MIC of MER in combination with compound at 32 µg mL^-1” value (“MIC of MER … at 32 µg mL^-1” below) (IMP-BL21 (IMP-4^+)) was 4 µg/mL, the FICI (IMP-BL21 (IMP-4^+); [3]) was 0.187 and the “growth inhibition by CBS itself” value (NDM-HK (NDM-1^+); NDM-1-positive NDM-HK, even at 256 µg mL^-1) was “no or minor growth inhibition”. For the same substance, the “MBC of Bi(III) compound/inhibitor alone” value (NDM-HK (NDM-1^+); NDM-HK) was over 256 µg/mL, the “MBC of MER in combination” value (NDM-HK (NDM-1^+); NDM-HK) was 4 µg/mL and the “MIC of Bi(III) compound/inhibitor alone” value (NDM-HK (NDM-1^+); NDM-HK) was over 256 µg/mL. The “MIC of MER in combination with CBS at 16 µg mL-1” value (“MIC of MER … at 16 µg mL-1” for short) (NDM-HK (NDM-1^+); NDM-HK) was 4 µg/mL, the “MIC of MER in combination with CBS at 256 µg mL-1” value (from here on “MIC of MER … at 256 µg mL-1”) (NDM-HK (NDM-1^+); NDM-HK) was 2 µg/mL and the “MIC of MER … at 32 µg mL^-1” value (NDM-HK (NDM-1^+); NDM-HK) was 2 µg/mL. For the same substance, the FICI (NDM-HK (NDM-1^+); NDM-HK, MER + compound, 256 µg mL^-1 set as MIC of Bi(III), 128 for Bi(NAC)3) was 0.250, the “MBC of Bi(III) compound alone” value (VIM-BL21 (VIM-2^+)) was over 256 µg/mL and the “MBC of MER in combination” value (VIM-BL21 (VIM-2^+)) was 1 µg/mL. For the same substance, the “MIC of Bi(III) compound alone” value (VIM-BL21 (VIM-2^+)) was over 256 µg/mL, the “MIC of MER … at 32 µg mL^-1” value (VIM-BL21 (VIM-2^+)) was 0.5 µg/mL and the FICI (VIM-BL21 (VIM-2^+); [3]) was 0.047. For the same substance, the “growth inhibition by CBS itself” value (NDM-HK PCV; NDM-1-negative NDM-HK PCV, even at 256 µg mL^-1) was “no or minor growth inhibition”, the “MIC of MER … at 16 µg mL-1” value (NDM-HK PCV; NDM-HK PCV) was 0.03 µg/mL and the “MIC of MER in combination with CBS at 32 µg mL-1” value (shortened to “MIC of MER … at 32 µg mL-1”) (NDM-HK PCV; NDM-HK PCV) was 0.03 µg/mL. For the same substance, the “MIC of MER … at 256 µg mL-1” value (NDM-HK PCV; NDM-HK PCV) was 0.03 µg/mL, the FICI (NDM-HK PCV; NDM-HK PCV, MER + CBS) was 2 and the “MIC of MER … at 16 µg mL-1” value (E. coli ATCC 25922) was 0.03 µg/mL. For the same substance, the “MIC of MER … at 32 µg mL-1” value (E. coli ATCC 25922) was 0.03 µg/mL, the “MIC of MER … at 256 µg mL-1” value (E. coli ATCC 25922) was 0.03 µg/mL and the “MIC of MER … at 16 µg mL-1” value (E. coli BL21(DE3)) was 0.03 µg/mL. For the same substance, the “MIC of MER … at 32 µg mL-1” value (E. coli BL21(DE3)) was 0.03 µg/mL, the “MIC of MER … at 256 µg mL-1” value (E. coli BL21(DE3)) was 0.03 µg/mL and the “MIC of MER … at 16 µg mL-1” value (E. coli Rosetta(DE3)) was 0.03 µg/mL. The “MIC of MER … at 32 µg mL-1” value (E. coli Rosetta(DE3)) was 0.03 µg/mL, the “MIC of MER … at 256 µg mL-1” value (E. coli Rosetta(DE3)) was 0.03 µg/mL and the “MIC of MER … at 16 µg mL-1” value (NDM-Rosetta OX) was 128 µg/mL. For the same substance, the “MIC of MER … at 32 µg mL-1” value (NDM-Rosetta OX) was 128 µg/mL, the “MIC of MER … at 256 µg mL-1” value (NDM-Rosetta OX) was 32 µg/mL and the “melting temperature, treated group” value (NDM-1-C208A) was 49.72 °C. For the same substance, the “lowering of NDM-HK population in time kill curves” value (NDM-HK [1]) was “more than 1000 fold” and the “mice survived, MER and CBS co-administrated” value (NDM-HK [2]) was 40%.
